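In this assay, cells in 96-well plates receive the compound at five concentrations for 48 hours. Endpoints are linearly interpolated between the surrounding concentrations. The concentration for 50% growth inhibition is given as GI50.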 The source made the active and inactive calls. Rule as the data show it: active = GI50 up to about 1.1 µM and inactive = higher.
Tests used:
Assay in all cases: NCI anticancer screen, dose series, 48 h
SNB-19 = system: SNB-19
LOX IMVI = system: LOX IMVI
NCI-H23 = system: NCI-H23
SF-295 = system: SF-295
KM12 = system: KM12
SW-620 = system: SW-620
UACC-62 = system: UACC-62
ACHN = system: ACHN
SK-MEL-28 = system: SK-MEL-28
DLD-1 = system: DLD-1
HOP-62 = system: HOP-62
DMS-114 = system: DMS-114
NCI-H522 = system: NCI-H522
SNB-75 = system: SNB-75
HCT-116 = system: HCT-116
OVCAR-4 = system: OVCAR-4
UACC-257 = system: UACC-257
SNB-78 = system: SNB-78
786-0 = system: 786-0
LXFL 529 = system: LXFL 529
A549 = system: A549
U-251 = system: U-251
SK-OV-3 = system: SK-OV-3
HT-29 = system: HT-29
UO-31 = system: UO-31
KM-20L2 = system: KM-20L2
TK-10 = system: TK-10
HCT-15 = system: HCT-15
Malme-3M = system: Malme-3M
SF-268 = system: SF-268
CAKI-1 = system: CAKI-1
M19-MEL = system: M19-MEL
EKVX = system: EKVX
RXF 393 = system: RXF 393
DMS-273 = system: DMS-273
SN12C = system: SN12C
A498 = system: A498
XF498 = system: XF498
OVCAR-3 = system: OVCAR-3
COLO 205 = system: COLO 205
M14 = system: M14
IGROV-1 = system: IGROV-1
NCI-H460 = system: NCI-H460
SK-MEL-5 = system: SK-MEL-5
OVCAR-8 = system: OVCAR-8
OVCAR-5 = system: OVCAR-5
SF-539 = system: SF-539
HOP-18 = system: HOP-18
CCRF-CEM = system: CCRF-CEM
HL-60 = system: HL-60
SK-MEL-2 = system: SK-MEL-2
HOP-92 = system: HOP-92
K562 = system: K562
HCC 2998 = system: HCC 2998
MOLT-4 = system: MOLT-4
RPMI-8226 = system: RPMI-8226
NCI-H226 = system: NCI-H226

## CSc1nnc(COc2ccc(Cl)cc2)o1
SNB-19
  GI50: > 100 µM (inactive)
LOX IMVI
  GI50: > 100 µM (inactive)
NCI-H23
  GI50: > 100 µM (inactive)
SF-295
  GI50: > 100 µM (inactive)
KM12
  GI50: > 100 µM (inactive)
SW-620
  GI50: > 100 µM (inactive)
UACC-62
  GI50: > 100 µM (inactive)
ACHN
  GI50: > 100 µM (inactive)
SK-MEL-28
  GI50: > 100 µM (inactive)
DLD-1
  GI50: > 100 µM (inactive)
HOP-62
  GI50: > 100 µM (inactive)
DMS-114
  GI50: > 100 µM (inactive)
NCI-H522
  GI50: > 100 µM (inactive)
SNB-75
  GI50: > 100 µM (inactive)
HCT-116
  GI50: > 100 µM (inactive)
OVCAR-4
  GI50: > 100 µM (inactive)
UACC-257
  GI50: > 100 µM (inactive)
SNB-78
  GI50: > 100 µM (inactive)
786-0
  GI50: > 100 µM (inactive)
LXFL 529
  GI50: > 100 µM (inactive)
A549
  GI50: > 100 µM (inactive)
U-251
  GI50: > 100 µM (inactive)
SK-OV-3
  GI50: > 100 µM (inactive)
HT-29
  GI50: > 100 µM (inactive)
UO-31
  GI50: > 100 µM (inactive)
KM-20L2
  GI50: > 100 µM (inactive)
TK-10
  GI50: > 100 µM (inactive)
HCT-15
  GI50: > 100 µM
Malme-3M
  GI50: > 100 µM (inactive)
SF-268
  GI50: > 100 µM (inactive)
CAKI-1
  GI50: > 100 µM (inactive)
M19-MEL
  GI50: > 100 µM (inactive)
EKVX
  GI50: > 100 µM (inactive)
RXF 393
  GI50: > 100 µM (inactive)
DMS-273
  GI50: > 100 µM (inactive)
SN12C
  GI50: > 100 µM (inactive)
A498
  GI50: > 100 µM (inactive)
XF498
  GI50: > 100 µM (inactive)
OVCAR-3
  GI50: > 100 µM (inactive)
COLO 205
  GI50: > 100 µM (inactive)
M14
  GI50: > 100 µM (inactive)
IGROV-1
  GI50: > 100 µM (inactive)
NCI-H460
  GI50: > 100 µM (inactive)
SK-MEL-5
  GI50: > 100 µM (inactive)
OVCAR-8
  GI50: > 100 µM (inactive)
OVCAR-5
  GI50: > 100 µM (inactive)
SF-539
  GI50: > 100 µM (inactive)

## CC1COS(=O)N1c1ccccc1 (configuration not stated)
LOX IMVI
  GI50: > 100 µM (inactive)
NCI-H23
  GI50: > 100 µM (inactive)
SF-295
  GI50: > 100 µM (inactive)
KM12
  GI50: > 100 µM (inactive)
SW-620
  GI50: > 100 µM (inactive)
UACC-62
  GI50: > 100 µM (inactive)
ACHN
  GI50: > 100 µM (inactive)
SK-MEL-28
  GI50: > 100 µM (inactive)
DLD-1
  GI50: > 100 µM (inactive)
HOP-62
  GI50: > 100 µM (inactive)
HOP-18
  GI50: > 100 µM (inactive)
DMS-114
  GI50: > 100 µM (inactive)
NCI-H522
  GI50: > 100 µM (inactive)
CCRF-CEM
  GI50: > 100 µM (inactive)
SNB-75
  GI50: > 100 µM (inactive)
OVCAR-4
  GI50: > 100 µM (inactive)
UACC-257
  GI50: > 100 µM (inactive)
786-0
  GI50: > 100 µM (inactive)
HL-60
  GI50: > 100 µM (inactive)
LXFL 529
  GI50: > 100 µM (inactive)
A549
  GI50: > 100 µM (inactive)
U-251
  GI50: > 100 µM (inactive)
SK-OV-3
  GI50: > 100 µM (inactive)
HT-29
  GI50: > 100 µM (inactive)
SK-MEL-2
  GI50: > 100 µM (inactive)
UO-31
  GI50: > 100 µM (inactive)
KM-20L2
  GI50: > 100 µM (inactive)
TK-10
  GI50: > 100 µM (inactive)
HOP-92
  GI50: > 100 µM (inactive)
HCT-15
  GI50: > 100 µM
Malme-3M
  GI50: > 100 µM (inactive)
SF-268
  GI50: > 100 µM (inactive)
M19-MEL
  GI50: > 100 µM (inactive)
EKVX
  GI50: > 100 µM (inactive)
RXF 393
  GI50: > 100 µM (inactive)
DMS-273
  GI50: > 100 µM (inactive)
A498
  GI50: > 100 µM (inactive)
K562
  GI50: > 100 µM (inactive)
HCC 2998
  GI50: > 100 µM (inactive)
XF498
  GI50: > 100 µM (inactive)
MOLT-4
  GI50: > 100 µM (inactive)
COLO 205
  GI50: > 100 µM (inactive)
RPMI-8226
  GI50: > 100 µM (inactive)
NCI-H226
  GI50: > 100 µM (inactive)
M14
  GI50: > 100 µM (inactive)
IGROV-1
  GI50: > 100 µM (inactive)
NCI-H460
  GI50: > 100 µM (inactive)
SK-MEL-5
  GI50: > 100 µM (inactive)
OVCAR-8
  GI50: > 100 µM (inactive)
OVCAR-5
  GI50: > 100 µM (inactive)

— ChEMBL document CHEMBL1201862, “PubChem BioAssay data set” (2004)
